From PubChem BioAssay (NCI) come the findings set out here.

Structures are written as SMILES.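 Exposure lasted 48 hours, with cells grown in 96-well plates and compounds tested at five concentrations. Abbreviation: GI50, concentration required for 50% inhibition of growth. The concentration for full growth arrest is given as TGI.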

Common to all, as to experiment: NCI-60 cell line screen, 48 h
The test system of experiment [1] is A498 renal.
Experiment [2] has as its system CCRF-CEM leukemia.
The test system of experiment [3] is DU-145 prostate.
For experiment [4], the system named is HCC-2998 colon.
The subject of experiment [5] is IGROV1 ovarian.
Experiment [6] concerns NCI-H460 lung.
The subject of experiment [7] is OVCAR-3 ovarian.
For experiment [8], the system named is OVCAR-5 ovarian.
For experiment [9], the system named is SR leukemia.
Experiment [10] has as its system U251 CNS.

On to `Cc1cccc(NC(=O)c2sc3nc4c(cc3c2N)CN(Cc2ccccc2)CC4)c1C`, for which the GI50 is 0.397 µM in experiment [1]; 0.195 µM in experiment [2]; 0.201 µM in experiment [3]; 5.39 µM in experiment [4]; 0.337 µM in [5]; 0.196 µM in experiment [6]. Besides, the GI50 was 0.194 µM in experiment [7], 0.484 µM in experiment [8], 0.0941 µM in [9] and 0.251 µM in experiment [10]. Besides, the TGI in [1], in experiment [2], in experiment [3], in experiment [4], in [5] and in experiment [6] was above 50 µM in each case. The TGI in experiment [7] is 31.9 µM; in [8] it was above 50 µM; in [9], above 50 µM; in experiment [10] it was above 50 µM.

Turning to `COc1ccc2cc(-c3c(-c4ccncc4)nc(-c4ccc(S(C)=O)cc4)n3C)ccc2c1` (stereo not given), the GI50 is above 7.37 µM in experiment [1]; above 21.6 µM in experiment [2]; above 25 µM in experiment [3]; 25 µM in experiment [4]; above 25 µM in [5]; 24.8 µM in experiment [6]. In addition, the GI50 in [7] was 15.3 µM; in experiment [8], above 25 µM; in experiment [9], above 25 µM; in [10], above 25 µM. Moreover, the TGI in experiment [1], in [2], in [3], in experiment [4], in experiment [5] and in experiment [6] was above 25 µM each time. The TGI in experiment [7], in experiment [8], in experiment [9] and in experiment [10] was above 25 µM in each case.

With `COc1cc(/C=C/[N+](=O)[O-])cc(Br)c1OC`, the GI50 in [1] is 2.03 µM; in experiment [2] it was 6.65 µM; in experiment [3], 1.8 µM; in [4] it was 1.71 µM; in experiment [5], 1.84 µM; in experiment [6], 3.48 µM. The GI50 in experiment [7] was 3.23 µM; in experiment [8], 14.3 µM; in [9], 2.02 µM; in experiment [10] it was 1.77 µM. In addition, the TGI is 8.53 µM in experiment [1]; 44.5 µM in experiment [2]; 3.56 µM in experiment [3]; 3.15 µM in experiment [4]; 4.54 µM in experiment [5]; 11.4 µM in [6]. Further, the TGI in experiment [7] is 10.2 µM; in experiment [8] it was 30.8 µM; in [9], above 100 µM; in [10] it was 3.75 µM.

With `CCn1c2ccccc2c2cc(/C=C(/C#N)C(N)=O)ccc21`, the GI50 in experiment [1] was 0.188 µM; in experiment [2], 13.2 µM; in experiment [3] it was 13.8 µM; in experiment [4] it was 4.22 µM; in [5], 2.87 µM; in [6], 1.67 µM. Further, the GI50 is 3.43 µM in [7], 0.668 µM in [8], 3.54 µM in experiment [9] and 5.45 µM in experiment [10]. Besides, the TGI in experiment [1] was 0.559 µM; in experiment [2], above 100 µM; in experiment [3], above 100 µM; in [4], 25.3 µM; in [5], above 51.9 µM; in experiment [6], 13.3 µM. In addition, the TGI was 19.1 µM in [7], 3.95 µM in experiment [8], above 100 µM in experiment [9] and above 100 µM in experiment [10].

With `O=[N+]([O-])c1cc(S(=O)(=O)Oc2ccccc2)ccc1Cl`, the GI50 was 1.68 µM in experiment [1]; 0.594 µM in experiment [2]; 1.83 µM in experiment [3]; 1.74 µM in experiment [4]; 1.77 µM in experiment [5]; 2.04 µM in experiment [6]. In addition, the GI50 is 1.49 µM in [7], 2.29 µM in experiment [8], 0.421 µM in [9] and 1.27 µM in experiment [10]. Besides, the TGI in [1] is 4.05 µM; in [2], 3.53 µM; in [3], 3.24 µM; in experiment [4] it was 3.33 µM; in [5], 3.22 µM; in [6], 4.06 µM. Also, the TGI is 2.85 µM in [7], 5.17 µM in experiment [8], 5.8 µM in [9] and 2.6 µM in [10].

With `COc1ccc2c(c1)OC1=C(C(=O)OC1)C2c1cc(OC)c2c(c1)OCO2` (stereo not given), the GI50 in experiment [1] is 0.0205 µM; in experiment [2] it was 0.0378 µM; in experiment [3], 0.0364 µM; in [4] it was 0.0424 µM; in experiment [5], 0.0716 µM; in experiment [6], 0.0374 µM. Besides, the GI50 in [7] was 0.0214 µM; in experiment [8], 0.153 µM; in experiment [9], 0.0313 µM; in experiment [10], 0.0429 µM. Besides, the TGI was 0.0923 µM in [1]; above 100 µM in experiment [2]; 0.459 µM in [3]; above 35.1 µM in [4]; above 100 µM in experiment [5]; above 100 µM in experiment [6]. Besides, the TGI in [7] is 0.0458 µM; in [8], above 100 µM; in [9], above 100 µM; in [10], above 100 µM.

Take `C[CH2][Pb]([CH2]C)([CH2]C)[O]C(=O)c1ccc2ccccc2n1`: the GI50 in experiment [1], in experiment [2], in experiment [3], in experiment [4], in experiment [5] and in experiment [6] was above 10 µM each time. Also, the GI50 in [7], in [8], in experiment [9] and in experiment [10] was above 10 µM each time. Moreover, the TGI in experiment [1], in experiment [2], in experiment [3], in experiment [4], in [5] and in [6] was above 10 µM throughout. Further, the TGI in [7], in experiment [8], in experiment [9] and in experiment [10] was above 10 µM each time.
